Reference: US20170056351A1, “COMPOSITION FOR INDUCING TUMOR IMMUNITY” (UNIVERSITY OF OCCUPATIONAL AND ENVIRONMENTAL HEALTH, JAPAN, priority 2014, published 2017)

How the values were obtained:
T98G cells = assay: Intracellular level of 5-ALA-induced PpIX by flow cytometric analysis, T98G; assay type: cell-based, human; settings: 1 mM 5-ALA for 4 hours, relative to 5-ALA-not-treated cells, average±SE
Description: Two types of rat glioma cell lines (9L and C6) and human glioma cell lines (U251 and T98G) were used. Before use, 9L and T98G were cultured in RPMI-1640 at 37° C. for several days, whereas C6 and U251 were cultured in 10% FBS-added Dulbecco's modified Eagle's medium (DMEM) at 37° C. for several days. These cell lines were maintained at 37° C. in 5% CO2 in a humidified incubator. The cells were subcultured at an exponential growth phase thereof, using 0.05% trypsin solution containing 0.5 mM ethylenediamine tetraacetate. 70% confluent cells were used in the subsequent experiments. […]
The cells were seeded on a 100-mm culture dish, and were then cultured. […] Immediately after the recovery, the cells were re-suspended in cold PBS/FBS, and were then analyzed using a flow cytometer (EC800; Sony Biotechnology, Tokyo, Japan). Generally, 30,000 cells contained in each sample were evaluated. Using 488-nm argon ion laser, fluorescence was excited from intracellular PpIX, and the fluorescence was then detected using a 640/30 nm band-pass filter. […] The flow cytometric data were analyzed using FlowJo (Tree Star Inc., Ashland, Oreg., USA). The mean fluorescence intensity (MFI) of PpIX fluorescence in the 5-ALA-treated cells, with respect to that of 5-ALA-not-treated cells, was calculated for each cell line.

9L gliosarcoma cells [1] = assay: Accumulation of ALA-induced PpIX in rat subcutaneous tumor model (HPLC analysis and fluorescence observation); assay type: in vivo
Description: As experimental animals, inbred male Fischer 344 rats (8 week old) (SLC, Inc. (Hamamatsu, Japan)) were used and were inoculated with 9L gliosarcoma cells. […] In short, 9L gliosarcoma cells (1×10^6 cells) were transplanted into the skin on the dorsal side of each Fischer 344 rat, so as to produce a rat subcutaneous tumor model.
Specifically, after the transplanted tumor had grown to a size of 1 cm in diameter, 100 mg/kg body weight of ALA was injected into the caudal vein of each rat (i.v.). Three hours later, the rat was anesthetized, and a tumor portion, excluding a portion covering the dorsal skin, was excised from the rat. The tumor portion was immediately subjected to a freezing treatment using dry ice, and the resultant was then preserved at −80° C. in a dark place.
Specifically, a tumor sample (approximately 1 mm in diameter) was treated with 200 μl of 0.1 M NaOH, and it was then homogenized on ice, using Powermasher II (Assist, Tokyo, Japan). […]
For the elution, Solvent A was used for 5 minutes, then, linear gradient Solvent B (0% to 100%) was used for 25 minutes, and thereafter, Solvent B was used for 10 minutes. The flow rate for elution was maintained at constant, using a fluorospectro-photometer (excited at 404 nm, and detected at 624 nm). […]

9L gliosarcoma cells [2] = assay: In vivo radiosensitizing effect of ALA with multiple doses of ionizing radiation, tumor growth in rat subcutaneous tumor model
Description: As experimental animals, inbred male Fischer 344 rats (8 week old) (SLC, Inc. (Hamamatsu, Japan)) were used and were inoculated with 9L gliosarcoma cells. The inoculation was carried out in accordance with the procedures described in the following publications: Yamamoto J, Hirano T, Li S, Koide M, Kohno E, Inenaga C, et al.: Selective accumulation and strong photodynamic effects of a new photosensitizer, ATX-S10.Na (II), in experimental malignant glioma. Int J Oncol 27: 1207-13, 2005; Yamamoto J, Yamamoto S, Hirano T, Li S, Koide M, Kohno E, et al.: Monitoring of singlet oxygen is useful for predicting the photodynamic effects in the treatment for experimental glioma. Clin Cancer Res 12: 7132-9, 2006. In short, 9L gliosarcoma cells (1×10^6 cells) were transplanted into the skin on the dorsal side of each Fischer 344 rat, so as to produce a rat subcutaneous tumor model.
As described above, 9L gliosarcoma cells were inoculated into inbred Fischer 344 rats. […] Moreover, according to other previous studies, it had been reported that the dose of ALA by a single intravenous injection is 100 to 500 mg/kg body weight in the photodynamic therapy (PDT) using rodents (Yamamoto J, Yamamoto S, Hirano T, Li S, Koide M, Kohno E, et al.: Monitoring of singlet oxygen is useful for predicting the photodynamic effects in the treatment for experimental glioma. Clin Cancer Res 12:7132-9, 2006; Abels C, Heil P, Dellian M, Kuhnle G E, Baumgartner R, Goetz A E: In vivo kinetics and spectra of 5-aminolaevulinic acid-induced fluorescence in an amelanotic melanoma of the hamster. Br J Cancer 70: 826-33, 1994; Abels C, Fritsch C, Bolsen K, Szeimies R M, Ruzicka T, Goerz G, et al.: Photodynamic therapy with 5-aminolaevulinic acid-induced porphyrins of an amelanotic melanoma in vivo. J Photochem Photobiol B 40: 76-83, 1997; Bozzini G, Colin P, Betrouni N, Maurage C A, Leroy X, Simonin S, et al.: Efficiency of 5-ALA mediated photodynamic therapy on hypoxic prostate cancer: a preclinical study on the Dunning R3327-AT2 rat tumor model. Photodiagnosis Photodyn Ther 10: 296-303, 2013.). Accordingly, in the present study, the present inventors have determined the maximum dose of ionizing radiation to be 10 Gy, and the maximum dose of ALA to be 500 mg/kg body weight. […] Multiple intravenous injections into the caudal vein of rats had been technically difficult, but according to the experience of the present inventors, at maximum 5 times of injections had been possible. Accordingly, the present inventors have determined an optimal ionizing irradiation schedule, in which ionizing irradiation at a dose of 2 Gy/day and ALA multiple-dose administration at a dose of 100 mg/kg body weight/day were carried out for 5 consecutive days. After the subcutaneous tumor had grown to a size of 6 to 8 mm in diameter, the rats were randomly divided into four groups, and were then treated as follows:
control group (without treatments) (n=5); ALA multiple-dose administration group (n=5); ionizing radiation multiple-dose application group (RT) (n=7); and ALA multiple-dose administration+ionizing radiation multiple-dose application group. (5-ALA+RT) (n=7).
In a group to which only ALA was administered, only ALA (100 mg/kg) was administered to rats via caudal vein for 5 consecutive days. In a multiple-dose application group involving only ionizing radiation, rats were anesthetized and were then irradiated with an ionizing radiation of 2 Gy/day for 5 consecutive days (a total of 10 Gy). In an ALA multiple-dose administration+ionizing radiation multiple-dose application group, for 5 consecutive days, rats were intravenously administered with ALA (100 mg/kg), then 3 hours later, the rats were anesthetized, and an ionizing radiation of 2 Gy/day was applied to the subcutaneous tumor thereof in a dark place (a total of 10 Gy). Ionizing radiation was applied at a rate of 0.65 Gy/min, using an X-ray irradiation apparatus (MBR-1520R; HITACHI Engineering & Service Co., Ltd., Japan). […]

NCC(=O)CCC(=O)O [ALA, 5-aminolevulinic acid]
relative MFI of PpIX fluorescence (T98G cells): 15.3±0.89
amount of PpIX in tumor induced by ALA (HPLC) (9L gliosarcoma cells [1]; 3 hours after intravenous administration of ALA 100 mg/kg body weight, mean±SE): 3.66±0.91 pmol/mg protein
fluorescence of subcutaneous tumor under 410 nm light (9L gliosarcoma cells [1]; 3 hours after intravenous administration of ALA, compared with control tumor without ALA): strong fluorescence
mean tumor growth inhibitory rate (9L gliosarcoma cells [2]; 16th day after treatment, ALA multiple-dose + ionizing radiation multiple-dose group compared with ionizing radiation multiple-dose group): 42.5%
mean tumor volume, Day 0 (9L gliosarcoma cells [2]; ALA alone 100 mg/kg i.v. for 5 consecutive days, Day 0, mean ± SE, n = 5): 143.9 ± 17.4 mm^3
mean tumor volume, Day 8 (9L gliosarcoma cells [2]; ALA alone 100 mg/kg i.v. for 5 consecutive days, Day 8, mean ± SE, n = 5): 865.4 ± 107.2 mm^3
mean tumor volume, Day 10 (9L gliosarcoma cells [2]; ALA alone 100 mg/kg i.v. for 5 consecutive days, Day 10, mean ± SE, n = 5): 1403 ± 224.3 mm^3
mean tumor volume, Day 12 (9L gliosarcoma cells [2]; ALA alone 100 mg/kg i.v. for 5 consecutive days, Day 12, mean ± SE, n = 5): 1842.6 ± 218.8 mm^3
mean tumor volume, Day 14 (9L gliosarcoma cells [2]; ALA alone 100 mg/kg i.v. for 5 consecutive days, Day 14, mean ± SE, n = 5): 2276.3 ± 192.8 mm^3
mean tumor volume, Day 16 (9L gliosarcoma cells [2]; ALA alone 100 mg/kg i.v. for 5 consecutive days, Day 16, mean ± SE, n = 5): 2869.4 ± 267.9 mm^3
growth of the tumor in comparison to the control group (9L gliosarcoma cells [2]; ALA multiple-dose administration alone, 16th day, p=0.0448): inhibited
